What was measured:
cultured fetal rat DRGs = assay: CoQ10 / HQO dose response: neurite growth and survival of cultured fetal rat DRGs; format: cell-based; conditions: for mean neurite length: day 16, controls 4.84 mm, p<0.0001
Protocol: In fact, by day 11, the length of neurites around DRGs was longer if the DRGs were cultured with CoQ10 (concentrations ranged from 0.1-50 uM) compared with control DRGs, p<0.0001 for all. FIG. 1A, 1B, 1C.
The aim of the second experiment was to confirm that exposure to 50 uM CoQ10 is not toxic to cultured fetal rat DRGs and also to see if even higher concentrations may be used safely. Eight DRGs (2 plates of 4 DRGs each) were cultured under each of the following conditions: • Control • 50 uM CoQ10 • 75 uM CoQ10 • 100 uM CoQ10
This experiment was carried on for 22 days, which is about as long as DRGs can be sustained in this model, even under control conditions. The experiment was continued for this time period to confirm that CoQ10 remains non-toxic in this model over time.
Neurite lengths around each DRG were measured at four representative points (giving a total of 32 measures at each exposure concentration at each time point) on days 1, 2, 5, 8, 12, 16 and 22.
A third experiment measured growth of DRG's with varying doses of HQO™, 0.1, 10, 100 uM CoQ10. This experiment was done in DRG's isolated from a new rat, which accounts for the difference in neurite length compared to experiments 1 and 2. […] (FIG. 1E)

[1] = system: cultured fetal rat dorsal root ganglia (DRGs); assay: In vitro model of ATN: NRTI (d4T/ddI) neurotoxicity in cultured fetal rat DRGs; format: cell-based
Protocol: Objective: To examine the safety and preventative efficacy of HQO™ using cultured fetal rat dorsal root ganglia (DRGs) as an in vitro model of ATN.
In a separate experiment, DRGs were exposed to a higher dose (50 μM) of d4T alone or with 10 or 100 nM HQO™.

## COC1=C(OC)C(=O)C(C/C=C(\C)CC/C=C(\C)CC/C=C(\C)CC/C=C(\C)CC/C=C(\C)CC/C=C(\C)CC/C=C(\C)CC/C=C(\C)CC/C=C(\C)CCC=C(C)C)=C(C)C1=O [CoQ10, coenzyme Q10]
Cultured fetal rat DRGs; day 11, 0.1-50 uM, p<0.0001 for all
  length of neurites around DRGs compared with control DRGs: longer
Cultured fetal rat DRGs; 75 uM (non-viable DRG excluded)
  mean neurite length: 6.20 mm
Cultured fetal rat DRGs; 100 uM
  mean neurite length: 6.07 mm
Cultured fetal rat DRGs; first dose finding experiment, concentrations up to 50 uM
  toxicity in cultured fetal rat DRGs: no evidence of toxicity
Cultured fetal rat DRGs; second experiment, 50, 75, 100 uM, up to 22 days
  toxicity in cultured fetal rat DRGs: no evidence of toxicity

## CC(=O)O[C@H](CC(=O)[O-])C[N+](C)(C)C [LAC, L-acetyl carnitine]
[1]; heading of Example 3, no data given
  NRTI (ddI)-induced neurotoxicity of fetal rat DRGs: Prevents

## Cc1cn([C@H]2C=C[C@@H](CO)O2)c(=O)[nH]c1=O [d4T, stavudine]
[1]; 50 μM d4T alone, by day 8
  toxicity in DRGs (NRTI alone): evident
